Measurements taken from ChEMBL document CHEMBL4020806, “Evaluation of the antiprotozoan properties of 5'-norcarbocyclic pyrimidine nucleosides” (Bioorg Med Chem Lett, 2017).

Key:
Format in all cases: functional
Trypanosoma brucei [1] = test: Antiprotozoal activity against bloodstream form of wild type Trypanosoma brucei after 16 hrs by Alamar Blue assay
Trypanosoma brucei [2] = test: Antiprotozoal activity against bloodstream form of multi-drug resistant Trypanosoma brucei B48 after 16 hrs by Alamar Blue assay; details: B48, 16 h
Trypanosoma brucei [3] = test: Antiprotozoal activity against PYR6-5 deficient bloodstream form of 5-FU hypersensitive Trypanosoma brucei after 16 hrs by Alamar Blue assay
Trypanosoma brucei [4] = test: Antiprotozoal activity against bloodstream form of 5FU resistant Trypanosoma brucei after 16 hrs by Alamar Blue assay
Trypanosoma brucei [5] = test: Resistance factor, ratio of EC50 for multi-drug resistant Trypanosoma brucei B48 to EC50 for wild type Trypanosoma brucei
Trypanosoma brucei [6] = test: Resistance factor, ratio of EC50 for PYR6-5 deficient bloodstream form of 5-FU hypersensitive Trypanosoma brucei to EC50 for wild type Trypanosoma brucei
Trypanosoma brucei [7] = test: Resistance factor, ratio of EC50 for 5FU resistant Trypanosoma brucei to EC50 for wild type Trypanosoma brucei
Leishmania mexicana [8] = test: Antileishmanial activity against wild type Leishmania mexicana after 16 hrs by Alamar Blue assay
Leishmania mexicana [9] = test: Antileishmanial activity against 5FU resistant Leishmania mexicana after 16 hrs by Alamar Blue assay
Leishmania mexicana [10] = test: Resistance factor, ratio of EC50 for 5FU resistant Leishmania mexicana to EC50 for wild type Leishmania mexicana

| SMILES | EC50 (Trypanosoma brucei [1]) [µM] | EC50 (Trypanosoma brucei [2]) [µM] | EC50 (Trypanosoma brucei [3]) [µM] | EC50 (Trypanosoma brucei [4]) [µM] | Ratio EC50 (Trypanosoma brucei [5]) | Ratio EC50 (Trypanosoma brucei [6]) | Ratio EC50 (Trypanosoma brucei [7]) | EC50 (Leishmania mexicana [8]) [µM] | EC50 (Leishmania mexicana [9]) [µM] | Ratio EC50 (Leishmania mexicana [10]) |
| --- | --- | --- | --- | --- | --- | --- | --- | --- | --- | --- |
| Cc1cc(=O)n(C(=O)c2ccccc2)c(=O)n1[C@H]1C=C[C@@H](OC(=O)c2ccccc2)C1 | 33.1 | 34 | 32.3 | 27.7 | 1 | 0.98 | 0.84 | 26.1 | 22.6 | 0.86 |
| O=C(O[C@@H]1C=C[C@H](n2ccc(=O)[nH]c2=O)C1)c1ccccc1 | 38.3 | 38.1 | 35.6 | 32.3 | 1 | 0.93 | 0.84 | 94.8 | 95.7 | 1.01 |
| N#Cc1cccc(C(=O)O[C@@H]2C=C[C@H](n3ccc(=O)[nH]c3=O)C2)c1 | 37.8 | 36.4 | 34.9 | 31.3 | 1 | 0.92 | 0.83 | 94.7 | 96.3 | 1.02 |
| Cc1ccc(Nc2cn([C@H]3C=C[C@@H](O)C3)c(=O)[nH]c2=O)cc1 | 31.7 | 31 | 24.7 | 17.1 | 1 | 0.78 | 0.54 | 94.6 | 96.7 | 1.02 |
| N#Cc1cccc(C(=O)O[C@@H]2C=C[C@H](n3ccc(=O)n(Cc4ccccc4)c3=O)C2)c1 | 27.9 | 25 | 26.4 | 21.4 | 0.9 | 0.94 | 0.76 | 45.5 | 52.6 | 1.16 |
| COc1ccc(Cn2c(=O)cc(C)n([C@H]3C=C[C@@H](OC(=O)c4ccccc4)C3)c2=O)cc1 | 30.5 | 27.2 | 28.3 | 20.3 | 0.9 | 0.93 | 0.66 | 33.8 | 43.6 | 1.29 |
| Cc1cc(C)cc(C(=O)O[C@@H]2C=C[C@H](n3ccc(=O)n(Cc4ccccc4)c3=O)C2)c1 | 8.6 | 8.7 | 11.1 | 8.7 | 1 | 1.29 | 1.01 | 31.8 | 25.1 | 0.79 |
| CCCCCCCCCCCCC#Cc1cn([C@H]2C=C[C@@H](O)C2)c(=O)n([C@H]2C=C[C@@H](O)C2)c1=O | 8 | 9 | 9.2 | 7.5 | 1.1 | 1.15 | 0.94 | 11.8 | 11.4 | 0.97 |
| O=C(O[C@@H]1C=C[C@H](n2cc(Br)c(=O)[nH]c2=O)C1)c1ccccc1 | 29.8 | 23.9 | 25.3 | 17.7 | 0.8 | 0.85 | 0.59 | 90.4 | 91.9 | 1.02 |
| O=C(O[C@@H]1C=C[C@H](n2ccc(=O)n(C(=O)c3cc(Cl)cc(Cl)c3)c2=O)C1)c1cc(Cl)cc(Cl)c1 | 31.8 | 33.9 | 29.5 | 25 | 1.1 | 0.93 | 0.79 | 89.1 | 91.4 | 1.03 |
| O=C(O[C@@H]1C=C[C@H](n2ccc(=O)[nH]c2=O)C1)c1cc(Cl)cc(Cl)c1 | 33.2 | 34.8 | 31.6 | 26.7 | 1 | 0.95 | 0.8 | 81.5 | 89.4 | 1.1 |
| Cc1cc(C)cc(Cn2c(=O)ccn([C@H]3C=C[C@@H](OC(=O)c4ccccc4)C3)c2=O)c1 | 15.2 | 15.7 | 15.9 | 12.4 | 1 | 1.05 | 0.82 | 41.3 | 38.6 | 0.94 |
| O=c1ccn([C@H]2C=C[C@@H](O)C2)c(=O)[nH]1 | 37.6 | 37.9 | 34.6 | 31.9 | 1 | 0.92 | 0.85 | 97 | 97.9 | 1.01 |
| Cc1cc(=O)[nH]c(=O)n1[C@H]1C=C[C@@H](O)C1 | 35.1 | 38.7 | 32.2 | 28.8 | 1.1 | 0.92 | 0.82 | 97.7 | 102 | 1.04 |
| Cc1cc(=O)[nH]c(=O)n1[C@H]1C=C[C@@H](OC(=O)c2ccccc2)C1 | 37.6 | 38.1 | 34.3 | 32 | 1 | 0.91 | 0.85 | 94.1 | 94.9 | 1.01 |
| O=c1[nH]c(=O)n([C@H]2C=C[C@@H](O)C2)cc1I | 35.3 | 36.2 | 33.5 | 30.8 | 1 | 0.95 | 0.87 | 95.2 | 95.6 | 1 |
| Cc1cc(C)cc(C(=O)O[C@@H]2C=C[C@H](n3ccc(=O)n(C(=O)c4cc(C)cc(C)c4)c3=O)C2)c1 | 23.8 | 21.9 | 24.4 | 20.2 | 0.9 | 1.03 | 0.85 | 38.9 | 23.6 | 0.61 |
| O=c1[nH]c(=O)n([C@H]2C=C[C@@H](O)C2)cc1Nc1ccccc1 | 28.1 | 30 | 21.4 | 13.8 | 1.1 | 0.76 | 0.49 | 94.1 | 95.3 | 1.01 |
| O=C(O[C@@H]1C=C[C@H](n2ccc(=O)n(Cc3ccccc3)c2=O)C1)c1ccccc1 | 29.1 | 25.5 | 27.7 | 21 | 0.9 | 0.95 | 0.72 | 34.5 | 46.3 | 1.34 |
| O=c1[nH]cc(F)c(=O)[nH]1 [FLUOROURACIL] | 66 | 74.6 | 2.3 | 3900 | 1.1 | 0.034 | 59.17 | 7.7 | 2470 | 322 |
| N=C(N)c1ccc(OCCCCCOc2ccc(C(=N)N)cc2)cc1 [PENTAMIDINE] | 0.0057 | 0.938 | 0.0051 | 0.0061 | 164 | 0.89 | 1.06 | 1.9 | 1.63 | 0.86 |
| O=c1[nH]c(=O)n([C@H]2C=C[C@@H](O)C2)cc1Br | 37.3 | 36.7 | 35.7 | 32.4 | 1 | 0.96 | 0.87 | 97.4 | 97.3 | 1 |
| Cc1cc(C)cc(Cn2c(=O)cc(C)n([C@H]3C=C[C@@H](OC(=O)c4ccccc4)C3)c2=O)c1 | 15.1 | 14 | 15.6 | 14.3 | 0.9 | 1.03 | 0.95 | 25.6 | 28.5 | 1.11 |
